The values below are quoted from earlier work in patent US12507891B2 (priority 2020, dated 2025).

For this data set the following is noted: incrementally increased propofol hypnosis.

On to `CC(C)c1cccc(C(C)C)c1O` [propofol], for which the “PUAL under propofol hypnosis” value is reported as “PUAL values remain within normal ranges until a subject becomes completely unresponsive”.
